Experimental data published in US20260216170A1, “TETRAHYDROISOQUINOLINE HETEROBIFUNCTIONAL BCL-XL DEGRADERS” (Treeline Biosciences, Inc., priority 2023, published 2026).

Target: T1, Human BCL-XL protein (N-terminal HiBiT tagged BCL-XL expressed in HT1080 cells) (Homo sapiens, UniProt Q07817)
T1 construct: expressed in transfected cells; host or cells: HT-1080 (ATCC CCL-121), stably transduced with lentivirus pLV-UBC-N-HiBiT-BCL-XL-PGK-puro and selected with puromycin
Assay: HiBiT Based Degradation Assay
Type: cell-based
Details: 24 hours incubation; for DC50: BCL-XL degradation, HT1080 cells expressing N-HiBiT-BCL-XL, normalized with DMSO control, geometric mean for multiple data points, read-out: EC50 (24 h); for Ymin (24 h): bottom of BCL-XL degradation curve (remaining HiBiT-BCL-XL signal vs DMSO control), HT1080 cells
In short: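 BCL-XL degradation was read as Nano-Glo HiBiT lytic luminescence relative to DMSO after a 24 h compound treatment of HT1080 cells carrying stably integrated N-HiBiT-BCL-XL. EC50 values come from four-parameter logistic curves, with the hook-curve minimum fixed as bottom, and are geometric means where tested repeatedly.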

T1 sequence (Q07817 whole entry): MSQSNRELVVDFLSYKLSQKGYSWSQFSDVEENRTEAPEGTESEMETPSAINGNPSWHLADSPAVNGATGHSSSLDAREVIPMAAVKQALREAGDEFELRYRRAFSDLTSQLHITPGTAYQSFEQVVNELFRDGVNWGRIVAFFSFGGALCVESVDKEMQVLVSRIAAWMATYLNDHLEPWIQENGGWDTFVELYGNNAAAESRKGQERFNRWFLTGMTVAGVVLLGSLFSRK

DC50	Ymin (24 h)	SMILES
10 to 100 nM	B (30% ≤ Ymin < 50%)	Cn1nc(C2CCC(=O)NC2=O)c2ccc(NC(=O)CN3CCC(CCCOc4cccc(-c5ccc(N6CCc7cccc(C(=O)Nc8nc9ccccc9s8)c7C6)nc5C(=O)O)c4C(F)(F)F)CC3)c(F)c21 (stereo not shown) [Compound 182]
10 to 100 nM	B (30% ≤ Ymin < 50%)	COc1c(NC(=O)CN2CC[C@H](CCCOc3cccc(-c4ccc(N5CCc6cccc(C(=O)Nc7nc8ccccc8s7)c6C5)nc4C(=O)O)c3C)C[C@H]2C)ccc2c(C3CCC(=O)NC3=O)nn(C)c12 (stereo partly shown) [Compound 208c]
< 10 nM	A (Ymin < 30%)	Cc1c(OCC2CC3(CCN(CCNc4ccc5c(C6CCC(=O)NC6=O)nn(C)c5c4)CC3)C2)cccc1-c1ccc(N2CCc3cccc(C(=O)Nc4nc5ccccc5s4)c3C2)nc1C(=O)O (stereo not shown) [Compound 153, 6-[8-(1,3-benzothiazol-2-ylcarbamoyl)-3,4-dihydro-1H-isoquinolin-2-yl]-3-[3-[[7-[2-[[3-(2,6-dioxo-3-piperidyl)-1-methyl-indazol-6-yl]amino]ethyl]-7-azaspiro[3.5]nonan-2-yl]methoxy]-2-methyl-phenyl]pyridine-2-carboxylic acid]
< 10 nM	A (Ymin < 30%)	Cc1c(OCC2CC3(CCN(CCCc4ccc5c(C6CCC(=O)NC6=O)nn(C)c5c4)CC3)C2)cccc1-c1ccc(N2CCc3cccc(C(=O)Nc4nc5ccccc5s4)c3C2)nc1C(=O)O (stereo not shown) [Compound 149, 6-[8-(1,3-benzothiazol-2-ylcarbamoyl)-3,4-dihydro-1H-isoquinolin-2-yl]-3-[3-[[7-[3-[3-(2,6-dioxo-3-piperidyl)-1-methyl-indazol-6-yl]propyl]-7-azaspiro[3.5]nonan-2-yl]methoxy]-2-methyl-phenyl]pyridine-2-carboxylic acid]
10 to 100 nM	B (30% ≤ Ymin < 50%)	Cc1c(OC[C@H]2C[C@@H]2C2CCN(CC(=O)Nc3ccc4c(C5CCC(=O)NC5=O)nn(C)c4c3)CC2)cccc1-c1ccc(N2CCc3cccc(C(=O)Nc4nc5ccccc5s4)c3C2)nc1C(=O)O (single isomer, unassigned) [Compound 1001b]
10 to 100 nM	A (Ymin < 30%)	Cc1cc(OC[C@@H](C)CC2CCN(CC(=O)Nc3ccc4c(C5CCC(=O)NC5=O)nn(C)c4c3)CC2)ccc1-c1ccc(N2CCc3ccnc(C(=O)Nc4nc5ccccc5s4)c3C2)nc1C(=O)O (single isomer, unassigned) [Compound 140b]
< 10 nM	B (30% ≤ Ymin < 50%)	Cc1c(OC2CC3(CCN(CC(=O)Nc4ccc5c(C6CCC(=O)NC6=O)nn(C)c5c4F)CC3)C2)cccc1-c1ccc(N2CCc3ccnc(C(=O)Nc4nc5ccccc5s4)c3C2)nc1C(=O)O (stereo not shown) [Compound 204, 6-(8-(benzo[d]thiazol-2-ylcarbamoyl)-3,4-dihydro-2,7-naphthyridin-2(1H)-yl)-3-(3-((7-(2-((3-(2,6-dioxopiperidin-3-yl)-7-fluoro-1-methyl-1H-indazol-6-yl)amino)-2-oxoethyl)-7-azaspiro[3.5]nonan-2-yl)oxy)-2-methylphenyl)picolinic acid]
10 to 100 nM	B (30% ≤ Ymin < 50%)	COc1c(NC(=O)CN2CCC3(CC2)CC(Oc2ccc(-c4ccc(N5CCc6cccc(C(=O)Nc7nc8ccccc8s7)c6C5)nc4C(=O)O)c(C(F)(F)F)c2)C3)ccc2c(C3CCC(=O)NC3=O)nn(C)c12 (stereo not shown) [Compound 172, 6-(8-(benzo[d]thiazol-2-ylcarbamoyl)-3,4-dihydroisoquinolin-2(1H)-yl)-3-(4-((7-(2-((3-(2,6-dioxopiperidin-3-yl)-7-methoxy-1-methyl-1H-indazol-6-yl)amino)-2-oxoethyl)-7-azaspiro[3.5]nonan-2-yl)oxy)-2-(trifluoromethyl)phenyl)picolinic acid]
10 to 100 nM	B (30% ≤ Ymin < 50%)	Cn1nc(C2CCC(=O)NC2=O)c2ccc(NC(=O)CN3CCC4(CC3)CC(COc3cccc(-c5ccc(N6CCc7ccnc(C(=O)Nc8nc9ccccc9s8)c7C6)nc5C(=O)O)c3C(F)(F)F)C4)cc21 (stereo not shown) [Compound 161, 6-[8-(1,3-benzothiazol-2-ylcarbamoyl)-3,4-dihydro-1H-2,7-naphthyridin-2-yl]-3-[3-[[7-[2-[[3-(2,6-dioxo-3-piperidyl)-1-methyl-indazol-6-yl]amino]-2-oxo-ethyl]-7-azaspiro[3.5]nonan-2-yl]methoxy]-2-(trifluoromethyl)phenyl]pyridine-2-carboxylic acid]
10 to 100 nM	B (30% ≤ Ymin < 50%)	C[C@@H]1C[C@@H](CCCOc2cccc(-c3ccc(N4CCc5cccc(C(=O)Nc6nc7ccccc7s6)c5C4)nc3C(=O)O)c2C(F)(F)F)CCN1CC(=O)Nc1ccc2c(C3CCC(=O)NC3=O)nn(C)c2c1 (stereo partly shown) [Compound 215c]
10 to 100 nM	B (30% ≤ Ymin < 50%)	C[C@@H](COc1ccc(-c2ccc(N3CCc4cccc(C(=O)Nc5nc6ccccc6s5)c4C3)nc2C(=O)O)c(C(F)(F)F)c1)CC1CCN(CC(=O)Nc2ccc3c(C4CCC(=O)NC4=O)nn(C)c3c2)CC1 (single isomer, unassigned) [Compound 130a]
10 to 100 nM	C (50% ≤ Ymin < 70%)	Cc1cc(OCCCC2CCN(CC(=O)Nc3cc4c(cc3F)c(C3CCC(=O)NC3=O)nn4C)CC2)ccc1-c1ccc(N2CCc3cccc(C(=O)Nc4nc5ccccc5s4)c3C2)nc1C(=O)O (stereo not shown) [Compound 109]
< 10 nM	B (30% ≤ Ymin < 50%)	Cc1cc(OCC2CC3(CCN(CC(=O)Nc4ccc5c(C6CCC(=O)NC6=O)nn(C)c5c4C)CC3)C2)ccc1-c1ccc(N2CCc3cccc(C(=O)Nc4nc5ccccc5s4)c3C2)nc1C(=O)O (stereo not shown) [Compound 124, 6-(8-(benzo[d]thiazol-2-ylcarbamoyl)-3,4-dihydroisoquinolin-2(1H)-yl)-3-(4-((7-(2-((3-(2,6-dioxopiperidin-3-yl)-1,7-dimethyl-1H-indazol-6-yl)amino)-2-oxoethyl)-7-azaspiro[3.5]nonan-2-yl)methoxy)-2-methylphenyl)picolinic acid]
10 to 100 nM	A (Ymin < 30%)	COc1c(NC(=O)CN2CC[C@H](CCCOc3ccc(-c4ccc(N5CCc6cccc(C(=O)Nc7nc8ccccc8s7)c6C5)nc4C(=O)O)c(C)c3)C[C@@H]2C)ccc2c(C3CCC(=O)NC3=O)nn(C)c12 (stereo partly shown) [Compound 210b]
10 to 100 nM	A (Ymin < 30%)	Cc1cc(O[C@@H](C)CCC2CCN(CC(=O)Nc3ccc4c(C5CCC(=O)NC5=O)nn(C)c4c3)CC2)ccc1-c1ccc(N2CCc3ccnc(C(=O)Nc4nc5ccccc5s4)c3C2)nc1C(=O)O (single isomer, unassigned) [Compound 133b]
10 to 100 nM	C (50% ≤ Ymin < 70%)	Cn1nc(C2CCC(=O)NC2=O)c2ccc(NC(=O)CN3CCC(CCCOc4cccc(-c5ccc(N6CCc7cccc(C(=O)Nc8nc9ccccc9s8)c7C6)nc5C(=O)O)c4C(F)(F)F)CC3)nc21 (stereo not shown) [Compound 145]
10 to 100 nM	B (30% ≤ Ymin < 50%)	COc1c(NC(=O)CN2CCC(CC[C@H](C)Oc3ccc(-c4ccc(N5CCc6cccc(C(=O)Nc7nc8ccccc8s7)c6C5)nc4C(=O)O)c(C)c3)CC2)ccc2c(C3CCC(=O)NC3=O)nn(C)c12 (single isomer, unassigned) [Compound 223a]
